Results on 13 compounds are retold here after ChEMBL document CHEMBL1141053, “Synthesis and SAR of novel oxazolidinones: discovery of ranbezolid” (2005).

Values after ≈ are worked out from the molar mass of the structure shown.

Type in all cases: functional
One assay concerns Streptococcus pneumoniae. Nature of the assay: In vitro minimum inhibitory concentration against Streptococcus pneumoniae ATCC 6303 after incubation in air at 35 degree C for 24 hr using agar dilution method. The note with it: ATCC 6303, 24 h. A general note: Agar dilution tests growth on a series of plates holding different concentrations.
The test system of assay [1] is Staphylococcus aureus. Nature of the assay: In vitro minimum inhibitory concentration against methicillin-resistant Staphylococcus aureus 562 after incubation in air at 35 degree C for 24 hr using agar dilution method.
The test system of the next assay is Enterococcus faecium. Nature of the assay: In vitro minimum inhibitory concentration against vancomycin-resistant Enterococcus faecium 6A after incubation in air at 35 degree C for 24 hr using agar dilution method.
In assay [2] the test system is Staphylococcus aureus. Nature of the assay: In vitro minimum inhibitory concentration against Staphylococcus aureus ATCC 25923 after incubation in air at 35 degree C for 24 hr using agar dilution method. Particulars: ATCC 25923, 24 h.
The subject of another assay is Enterococcus faecalis. Nature of the assay: In vitro minimum inhibitory concentration against Enterococcus faecalis ATCC 29212 after incubation in air at 35 degree C for 24 hr using agar dilution method. The note with it: ATCC 29212, 24 h.
Another assay concerns Streptococcus pyogenes. Nature of the assay: In vitro minimum inhibitory concentration against Streptococcus pyogenes ATCC 19615 after incubation in air at 35 degree C for 24 hr using agar dilution method. Particulars: ATCC 19615, 24 h.

Broadly, the MIC is the least concentration at which growth counts as inhibited. A higher MIC goes with a need for much substance. Turning to `CC(=O)NC[C@H]1CN(c2ccc(N3CCN(Cc4ccc(C)o4)CC3)c(F)c2)C(=O)O1`, the MIC against Streptococcus pneumoniae, in the assay with Staphylococcus aureus [1], with Enterococcus faecium, with Staphylococcus aureus [2], with Enterococcus faecalis and against Streptococcus pyogenes was above 16 µg/mL throughout.
As for `CC(=O)NC[C@H]1CN(c2ccc(N3C[C@@H](C)N(Cc4ccc([N+](=O)[O-])o4)[C@@H](C)C3)c(F)c2)C(=O)O1`, the MIC was 16 µg/mL (≈ 32.7 µM) against Streptococcus pneumoniae; 8 µg/mL (≈ 16.3 µM) against Staphylococcus aureus [1]; 8 µg/mL (≈ 16.3 µM) against Enterococcus faecium; 16 µg/mL (≈ 32.7 µM) with Staphylococcus aureus [2]; 8 µg/mL (≈ 16.3 µM) in the assay with Enterococcus faecalis; 16 µg/mL (≈ 32.7 µM) with Streptococcus pyogenes.
As to `CC(=O)NC[C@H]1CN(c2ccc(N3CCN(Cc4ccc(C#N)o4)CC3)c(F)c2)C(=O)O1`, the MIC in the assay with Streptococcus pneumoniae, in the assay with Staphylococcus aureus [1], in the assay with Enterococcus faecium, against Staphylococcus aureus [2], with Enterococcus faecalis and in the assay with Streptococcus pyogenes was 16 µg/mL (≈ 36.2 µM) each time.
Take `CC(=O)NC[C@H]1CN(c2ccc(N3CCN(Cc4ccc([N+](=O)[O-])o4)CC3C)c(F)c2)C(=O)O1` (stereo partly drawn): the MIC with Streptococcus pneumoniae worked out at 8 µg/mL (≈ 16.8 µM); against Staphylococcus aureus [1], 2 µg/mL (≈ 4.21 µM); in the assay on Enterococcus faecium, 4 µg/mL (≈ 8.41 µM); against Staphylococcus aureus [2] it was 4 µg/mL (≈ 8.41 µM); with Enterococcus faecalis it was 4 µg/mL (≈ 8.41 µM); in the assay on Streptococcus pyogenes, 4 µg/mL (≈ 8.41 µM).
For `CC(=O)NC[C@H]1CN(c2ccc(N3CCN(Cc4ccc(C(=O)O)o4)CC3)c(F)c2)C(=O)O1`, the MIC in the assay on Streptococcus pneumoniae, in the assay on Staphylococcus aureus [1], with Enterococcus faecium, in the assay with Staphylococcus aureus [2], with Enterococcus faecalis and against Streptococcus pyogenes was above 16 µg/mL in each case.
Regarding `CC(=O)NC[C@H]1CN(c2ccc(N3CCN(Cc4ccc(/C=N/N)o4)CC3)c(F)c2)C(=O)O1`, the minimal inhibitory concentration (MIC) was determined as 8 µg/mL (≈ 17.4 µM) with Streptococcus pneumoniae; 1 µg/mL (≈ 2.18 µM) against Staphylococcus aureus [1]; 8 µg/mL (≈ 17.4 µM) in the assay on Enterococcus faecium; 2 µg/mL (≈ 4.36 µM) against Staphylococcus aureus [2]; 8 µg/mL (≈ 17.4 µM) against Enterococcus faecalis; 8 µg/mL (≈ 17.4 µM) with Streptococcus pyogenes.
Consider `CC(=O)NC[C@H]1CN(c2ccc(N3CCN(Cc4ccc(COC(C)=O)o4)CC3)c(F)c2)C(=O)O1`, for which the MIC against Streptococcus pneumoniae, with Staphylococcus aureus [1], against Enterococcus faecium, with Staphylococcus aureus [2], in the assay on Enterococcus faecalis and in the assay on Streptococcus pyogenes was above 16 µg/mL throughout.
As to `CC(=O)NC[C@H]1CN(c2ccc(N3CCN(Cc4ccoc4[N+](=O)[O-])CC3)c(F)c2)C(=O)O1`, the minimum inhibitory concentration (MIC) with Streptococcus pneumoniae was 1 µg/mL (≈ 2.17 µM); with Staphylococcus aureus [1], 4 µg/mL (≈ 8.67 µM); against Enterococcus faecium, 4 µg/mL (≈ 8.67 µM); against Staphylococcus aureus [2], 8 µg/mL (≈ 17.3 µM); against Enterococcus faecalis, 4 µg/mL (≈ 8.67 µM); in the assay on Streptococcus pyogenes, 1 µg/mL (≈ 2.17 µM).
As for `CC(=O)NC[C@H]1CN(c2ccc(N3CCN(Cc4ccc(CO)o4)CC3)c(F)c2)C(=O)O1`, the MIC against Streptococcus pneumoniae, in the assay on Staphylococcus aureus [1], against Enterococcus faecium, against Staphylococcus aureus [2], against Enterococcus faecalis and in the assay on Streptococcus pyogenes was above 16 µg/mL in each case.
As for `CC(=O)NC[C@H]1CN(c2ccc(N3CCN(Cc4ccc([N+](=O)[O-])[nH]4)CC3)c(F)c2)C(=O)O1`, the MIC in the assay with Streptococcus pneumoniae is 4 µg/mL (≈ 8.69 µM); against Staphylococcus aureus [1] it was 4 µg/mL (≈ 8.69 µM); in the assay on Enterococcus faecium, 4 µg/mL (≈ 8.69 µM); against Staphylococcus aureus [2], 4 µg/mL (≈ 8.69 µM); against Enterococcus faecalis, 4 µg/mL (≈ 8.69 µM); with Streptococcus pyogenes, 1 µg/mL (≈ 2.17 µM).
On to `CC(=O)NC[C@H]1CN(c2ccc(N3CCN(Cc4ccc([N+](=O)[O-])n4C)CC3)c(F)c2)C(=O)O1`, for which the MIC turned out to be 8 µg/mL (≈ 16.9 µM) with Streptococcus pneumoniae; 4 µg/mL (≈ 8.43 µM) with Staphylococcus aureus [1]; 4 µg/mL (≈ 8.43 µM) against Enterococcus faecium; 4 µg/mL (≈ 8.43 µM) in the assay on Staphylococcus aureus [2]; 4 µg/mL (≈ 8.43 µM) against Enterococcus faecalis; 2 µg/mL (≈ 4.22 µM) in the assay on Streptococcus pyogenes.
Regarding `CCOC(=O)c1ccc(CN2CCN(c3ccc(N4C[C@H](CNC(C)=O)OC4=O)cc3F)CC2)o1`, the MIC against Streptococcus pneumoniae, against Staphylococcus aureus [1], with Enterococcus faecium, against Staphylococcus aureus [2], against Enterococcus faecalis and against Streptococcus pyogenes was above 16 µg/mL in each case.
As to `CC(=O)NC[C@H]1CN(c2ccc(N3CCC(Nc4ccc([N+](=O)[O-])o4)CC3)c(F)c2)C(=O)O1`, the minimum inhibitory concentration (MIC) against Streptococcus pneumoniae stood at 2 µg/mL (≈ 4.33 µM); in the assay on Staphylococcus aureus [1] it was 1 µg/mL (≈ 2.17 µM); against Enterococcus faecium it was 0.5 µg/mL (≈ 1.08 µM); in the assay with Staphylococcus aureus [2] it was 1 µg/mL (≈ 2.17 µM); against Enterococcus faecalis, 0.5 µg/mL (≈ 1.08 µM); in the assay with Streptococcus pyogenes, 0.25 µg/mL (≈ 0.542 µM).
